Source: patent EP2387573B1, “6-PHENYL-1H-IMIDAZO[4,5-C]PYRIDINE-4-CARBONITRILE DERIVATIVES AS CATHEPSIN S AND/OR CATHEPSIN K INHIBITORS” (Organon BioSciences Nederland B.V., priority 2009, dated 2010)
Counter-ions that a name gives are not always drawn.

Legend:
Cathepsin S [1] = target: T1, Cathepsin S (Homo sapiens, UniProt P25774); assay: Cathepsin S assay procedure (inhibition of recombinant enzyme, fluorogenic substrate Z-Val-Val-Arg-AMC); assay type: biochemical; conditions: pH5.5, fluorescence at 20 minutes; read-out: pIC50 (negative logarithm of the IC50 concentration) for inhibition of human cathepsin S (converted)
Description: EXAMPLE 32 Cathepsin S assay procedure
25µl of a 2mg/l solution of activated recombinant human cathepsin S, in assay buffer, is then added to the well, yielding a final inhibitor concentration of 10µM.
Enzyme activity is determined by measuring the fluorescence of the liberated aminomethylcoumarin at […] using 390nm excitation, at 20 minutes. Percentage enzyme activity is calculated by comparison of this activity to that of a solution containing no inhibitor. Compounds are subsequently subjected to a dose response curve analysis in order to determine IC50 values for active compounds (where IC50 is the concentration of test compound causing 50 % inhibition of the enzymatic activity). Compounds of the invention typically have a pIC50 (negative logarithm of the IC50 concentration) for inhibition of human cathepsin S of more than 6. Most compounds of the invention have a pIC50 of more than 7, such as exemplified by the compounds of examples 1a, 1b, 2a, 7d, 12a, 14a, 14b, 14c, 14d, 14e, 14f, 14g, 14h, 14i, 17, 18.

Cathepsin S [2] = target: T1, Cathepsin S; assay: Cell based lip10 assay (Lip10 accumulation, anti-CD74 ELISA); parameters: endogenous in cells; host or cells: Jiyoye human B lymphoblastoid cells; conditions: Human B lymphoblastoid cells (Jiyoye), 24 hours, relative to E64d / LHVS-treated cells; read-out: pEC50 (negative logarithm of the EC50 concentration) (converted)
From the text: In some cases, these cell based activities are up to 100 fold greater than previously disclosed compounds in WO 2007/080191.
EXAMPLE 34 Cathepsin S assay
During normal antigen presentation, Lip10 is proteolytically degraded to enable loading of a peptide fragment and subsequent MHC-II presentation on the surface of antigen presenting cells. The cleavage process is mediated by Cathepsin S. Thus, the Lip10 assay is an in vitro measure of a compound's ability to block cathepsin S and by extension antigen presentation. A compound that causes the accumulation of Lip10 at low concentration would be expected to block presentation of antigens.
Cell based lip10 assay procedure
Human B lymphoblastoid cells (Jiyoye) were cultured in RPMI 1640 medium at a density of 500 000 cells/ml in 24-well plates. Cells were treated with a concentration range of compounds (0.001-10µM) and vehicle alone (DMSO, 0.1% v/v). In order to generate positive control treatments separate wells were treated with 10µM E64d & 0.1µM LHVS. The cells were incubated at 37°C in a humidified incubator containing 5% CO2. After 24 hours the plates were centrifuged at 150 x g for five minutes and the media removed. Cells were lysed by adding 65µl of ice-cold phosphate buffered saline (PBS) containing 1% (v/v) Triton X-100 and protease inhibitors and incubated on ice for 20 minutes. The samples were centrifuged at 18 000 x g for 15 minutes at 4°C and the resulting supernatants collected and stored at -80°C until required. After measurement of protein concentration using a micro-BCA protein assay all samples were diluted to 10µg protein/ml and 50µl of each sample were coated overnight at 4°C onto wells of high protein-binding 96-well plates. The wells were washed once with PBS (200µl/well) and then incubated at room temperature for 2 hours with 10µg/ml mouse anti-CD74 Pin.1 monoclonal antibody (50µl/well) in PBS containing 0.05% (v/v) Tween-20 (PBS-T) and 2% (w/v) BSA (PBS-T/BSA). Unbound antibody was then removed by washing three times with PBS-T and followed by the addition of rabbit anti-mouse IgG antibody conjugated to horseradish peroxidase. After washing five times with PBS-T 100µl of tetramethylbenzidine substrate was added to each well and incubated for 10 minutes on a plate shaker. The reaction was stopped by the addition of 100µl of 1 M hydrochloric acid. Antibody binding was quantified by measuring the optical density (OD, 450nm) using a Molecular Devices Spectramax Plus. The OD of vehicle-only treated cells was removed from all values and the data was expressed as a percentage of the OD generated from the mean E64d / LHVS-treated cells. The potency of compounds (EC50) was measured by calculating the concentration of inhibitor required to generate 50% inhibition relative to E64d / LHVS-treated cells.

T1 sequence (P25774 115-331): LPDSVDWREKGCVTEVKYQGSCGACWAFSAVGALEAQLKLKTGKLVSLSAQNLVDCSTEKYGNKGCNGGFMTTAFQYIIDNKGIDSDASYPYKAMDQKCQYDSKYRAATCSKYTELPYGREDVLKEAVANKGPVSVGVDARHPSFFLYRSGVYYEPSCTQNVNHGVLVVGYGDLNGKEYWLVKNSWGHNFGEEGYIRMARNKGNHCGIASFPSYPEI

SMILES | IC50 (Cathepsin S [1]) [nM] | EC50 (Cathepsin S [2]) [nM]
Cn1cnc2c(C#N)nc(-c3ccc(OCCCNS(C)(=O)=O)c(C(F)(F)F)c3)cc21 [Example 1a, N-(3-(4-(4-cyano-1-methyl-1H-imidazo[4,5-c]pyridin-6-yl)-2-(trifluoromethyl)phenoxy)propyl)methanesulfonamide] | < 100 | 
CC(=O)NCCCOc1ccc(-c2cc3c(ncn3C)c(C#N)n2)cc1C(F)(F)F [Example 1b, 6-[4-(3-acetylaminopropoxy)-3-(trifluoromethyl)-phenyl]-1-methyl-1H-imidazo[4,5-c]pyridine-4-carbonitrile] | < 100 | 
CC(=O)N(C)CCCOc1ccc(-c2cc3c(ncn3C)c(C#N)n2)cc1C(F)(F)F [Example 2a, 6-{4-[3-(N-acetyl-N-methylamino)propoxy]-3-(trifluoromethyl)-phenyl}-1-methyl-1H-imidazo[4,5-c]pyridine-4-carbonitrile] | < 100 | 
CC(=O)N(C)CCOc1ccc(-c2cc3c(ncn3C)c(C#N)n2)cc1C(F)(F)F [Example 7d, 1-methyl-6-(4-(2-(N-acetyl-N-methylamino)ethoxy)-3-(trifluoromethyl)phenyl)-1H-imidazo[4,5-c]pyridine-4-carbonitrile] | < 100 | 
CCN(C)c1cc(COc2ccc(-c3cc4c(ncn4C)c(C#N)n3)cc2C(F)(F)F)ccn1 [Example 12a, 1-Methyl-6-{4-[(2-(N-ethyl-N-methylamino)-pyridin-4-yl)-methoxy]-3-(trifluoromethyl)-phenyl}-1H-imidazo[4,5-c]pyridine-4-carbonitrile Hydrocloride] | < 100 | < 100
CCNc1cc(COc2ccc(-c3cc4c(ncn4C)c(C#N)n3)cc2C(F)(F)F)ccn1 [Example 12b, 1-Methyl-6-{4-[(2-(N-ethylamino)-pyridin-4-yl)-methoxy]-3-(trifluoromethyl)-phenyl}-1H-imidazo[4,5-c]pyridine-4-carbonitrile] |  | < 100
CNc1cc(COc2ccc(-c3cc4c(ncn4C)c(C#N)n3)cc2C(F)(F)F)ccn1 [Example 12c, 1-Methyl-6-{4-[(2-(N-methylamino)-pyridin-4-yl)-methoxy]-3-(trifluoromethyl)-phenyl}-1H-imidazo[4,5-c]pyridine-4-carbonitrile] |  | < 100
Cn1cnc2c(C#N)nc(-c3ccc(OCCC4CCN(Cc5ncco5)CC4)c(C(F)(F)F)c3)cc21 [Example 14a, 1-methyl-6-(4-(2-(1-(oxazol-2-ylmethyl)piperidin-4-yl)ethoxy)-3-(trifluoromethyl)phenyl)-1H-imidazo[4,5-c]pyridine-4-carbonitrile hydrochloride] | < 100 | < 100
Cc1cc(CN2CCC(CCOc3ccc(-c4cc5c(ncn5C)c(C#N)n4)cc3C(F)(F)F)CC2)no1 [Example 14b, 1-methyl-6-(4-(2-(1-((5-methylisoxazol-3-yl)methyl)piperidin-4-yl)ethoxy)-3-(trifluoromethyl)phenyl)-1H-imidazo[4,5-c]pyridine-4-carbonitrile] | < 100 | < 100
Cc1noc(C)c1CN1CCC(CCOc2ccc(-c3cc4c(ncn4C)c(C#N)n3)cc2C(F)(F)F)CC1 [Example 14c, 6-(4-(2-(1-((3,5-dimethylisoxazol-4-yl)methyl)piperidin-4-yl)ethoxy)-3-(trifluoromethyl)phenyl)-1-methyl-1H-imidazo[4,5-c]pyridine-4-carbonitrile] | < 100 | < 100
CN(C)C(=O)CN1CCC(CCOc2ccc(-c3cc4c(ncn4C)c(C#N)n3)cc2C(F)(F)F)CC1 [Example 14d, 6-(4-(2-(1-(2-dimethylamino-2-oxo-ethyl)piperidin-4-yl)ethoxy)-3-(trifluoromethyl)phenyl)-1-methyl-1H-imidazo[4,5-c]pyridine-4-carbonitrile] | < 100 | < 100

The next lines start with the values.

IC50 (Cathepsin S [1]) [nM] | EC50 (Cathepsin S [2]) [nM] | SMILES
< 100 |  | Cn1cnc2c(C#N)nc(-c3ccc(OCCC4CCN(CC(=O)N5CCCC5)CC4)c(C(F)(F)F)c3)cc21 [Example 14e, 6-(4-(2-(1-(2-oxo-2-(pyrrolidin-1-yl)ethyl)piperidin-4-yl)ethoxy)-3-(trifluoromethyl)phenyl)-1-methyl-1H-imidazo[4,5-c]pyridine-4-carbonitrile]
< 100 |  | Cn1cnc2c(C#N)nc(-c3ccc(OCCC4CCN(CCF)CC4)c(C(F)(F)F)c3)cc21 [Example 14f, 6-(4-(2-(1-(2-fluoroethyl)piperidin-4-yl)ethoxy)-3-(trifluoromethyl)phenyl)-1-methyl-1H-imidazo[4,5-c]pyridine-4-carbonitrile]
< 100 |  | Cn1cnc2c(C#N)nc(-c3ccc(OCCC4CCN(CC(F)F)CC4)c(C(F)(F)F)c3)cc21 [Example 14g, 6-(4-(2-(1-(2,2-difluoroethyl)piperidin-4-yl)ethoxy)-3-(trifluoromethyl)phenyl)-1-methyl-1H-imidazo[4,5-c]pyridine-4-carbonitrile]
< 100 |  | COCCN1CCC(CCOc2ccc(-c3cc4c(ncn4C)c(C#N)n3)cc2C(F)(F)F)CC1 [Example 14h, 6-(4-(2-(1-(2-methoxyethyl)piperidin-4-yl)ethoxy)-3-(trifluoromethyl)phenyl)-1-methyl-1H-imidazo[4,5-c]pyridine-4-carbonitrile]
< 100 |  | Cn1cnc2c(C#N)nc(-c3ccc(OCCC4CCN(Cc5nccs5)CC4)c(C(F)(F)F)c3)cc21 [Example 14i, 1-methyl-6-(4-(2-(1-(thiazol-2-ylmethyl)piperidin-4-yl)ethoxy)-3-(trifluoromethyl)-phenyl)-1H-imidazo[4,5-c]pyridine-4-carbonitrile]
< 100 |  | Cn1cnc2c(C#N)nc(-c3ccc(OCCN4C=NC(C)(C)C4=O)c(C(F)(F)F)c3)cc21 [Example 18, 6-(4-(2-(4,4-dimethyl-5-oxo-4,5-dihydro-1H-imidazol-1-yl)ethoxy)-3-(trifluoromethyl)phenyl)-1-methyl-1H-imidazo[4,5-c]pyridine-4-carbonitrile TFA salt]
